Experimental data published in EP0597303A2, “Cephalosporin derivatives” (priority 1992, dated 1994).
Structures can show the parent of a compound that is named as a salt.

Key:
Experiment in all cases: MIC, Agar (Mueller Hinton) Dilution Method
Type in all cases: cell-based
Bacillus subtilis 558 = settings: Bacillus subtilis 558; Gram Positive and Others; read-out: MIC
In short: (§1)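 Serial dilutions of test compound in Mueller Hinton agar were inoculated with assorted Gram-positive and Gram-negative bacteria, and inhibition was expressed as MIC (micrograms/ml).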

E. coli DC-0 = settings: Escherichia coli, DC0, Gram Negative
In short: as §1

Ps. aeruginosa 56M = settings: Pseudomonas aeruginosa, Gram Negative
In short: as §1

Prot. vulgaris 1028 BC = settings: Proteus vulgaris, 1028BC
In short: as §1

Cit. freundii EL-1408 = settings: Citrobacter freundii, EL1408; Cit. freundii EL-1408; Gram Negative; read-out: MIC
In short: as §1

[1] = tested on: Ps. aeruginosa ATCC 27853; settings: Pseudomonas aeruginosa, ATCC27853, Gram Negative
In short: as §1

[2] = tested on: Staphylococcus aureus Smith; settings: Staphylococcus aureus
In short: as §1

Prot. vulgaris 100 = settings: Proteus vulgaris, Gram Negative
In short: as §1

Enter. cloacae 4946 = settings: Enterobacter cloacae, Gram Negative
In short: as §1

Staph. aureus 95 = settings: Staphylococcus aureus, 95
In short: as §1

[3] = tested on: Streptococcus pneumoniae 6303; settings: Streptococcus pneumoniae 6303; Gram Positive and Others; read-out: MIC
In short: as §1

Prot. mirabilis 620A = settings: Proteus mirabilis, 620A
In short: as §1

E. coli HMS1 = settings: Escherichia coli, HMS1
In short: as §1

E. coli B = settings: Escherichia coli, Gram Negative
In short: as §1

E. coli DC-2 = settings: Escherichia coli, DC2, Gram Negative
In short: as §1

Mycobacterium phlei 78 = settings: Mycolicibacterium phlei, 78
In short: as §1

Ps. aeruginosa 18SH = settings: Pseudomonas aeruginosa, constitutive ß-lactamase producer, Gram Negative
In short: as §1

E. coli 4 = settings: Escherichia coli, 4
In short: as §1

Serratia marcescens SM = settings: Serratia marcescens SM; constitutive ß-lactamase producer; Gram Negative; read-out: MIC
In short: as §1

Escherichia coli 257 = settings: Gram Negative
In short: as §1

Staph. aureus ATCC 25923 = settings: Staphylococcus aureus, ATCC25923, Gram Positive and Others
In short: as §1

Staph. aureus 1059B = settings: Staphylococcus aureus, 1059B
In short: as §1

Ps. aeruginosa 765 = settings: Pseudomonas aeruginosa, Gram Negative
In short: as §1

Staph. aureus 404 = settings: Staphylococcus aureus, 404
In short: as §1

Staph. aureus Evans = settings: Staphylococcus aureus; Staph. aureus Evans; Gram Positive and Others; read-out: MIC
In short: as §1

[4] = tested on: Citrobacter freundii BS-16; settings: Citrobacter freundii, BS16
In short: as §1

Bacillus megaterium 164 = settings: Priestia megaterium; Bacillus megaterium 164; Gram Positive and Others; read-out: MIC
In short: as §1

A. calcoaceticus PCI-3 = settings: Acinetobacter calcoaceticus, PCI3, Gram Negative
In short: as §1

E. coli 1527E = settings: Escherichia coli, Gram Negative
In short: as §1

Ps. aeruginosa 1973 E = settings: Pseudomonas aeruginosa, Gram Negative
In short: as §1

E. coli 1573E = settings: Escherichia coli; E. coli 1573E; Gram Negative; read-out: MIC
In short: as §1

E. coli Leo HA2M4 = settings: Escherichia coli, LEOHA2M4
In short: as §1

E. coli 94 = settings: Escherichia coli, Gram Negative
In short: as §1

E. coli Leo HA2 = settings: Escherichia coli, LEOHA2, Gram Negative
In short: as §1

Ps. aeruginosa 8780 = settings: Pseudomonas aeruginosa, Gram Negative
In short: as §1

[5] = tested on: Str. pneumoniae N82-012-MC; settings: Streptococcus pneumoniae, N82012MC; Str. pneumoniae N82-012-MC; Gram Positive and Others; read-out: MIC
In short: as §1

Ent. faecalis ATCC 29212 = settings: Enterococcus faecalis, ATCC29212, Gram Positive and Others
In short: as §1

Prov. rettgeri ATCC 9250 = settings: Providencia rettgeri, ATCC9250, Gram Negative
In short: as §1

Ps. aeruginosa K799/WT = settings: Pseudomonas aeruginosa, Gram Negative
In short: as §1

N#CCC(=O)N[C@@H]1C(=O)N2C(C(=O)O)=C(COC(=O)N[C@@H]3CCN(c4c(F)cc5c(=O)c(C(=O)O)cn(C6CC6)c5c4F)C3)CS[C@H]12 [Formula Ibb, [6R-[3(R^*), 6 alpha, 7 beta]]-3-[[[[[1-(3-Carboxy-1-cyclopropyl-6,8-difluoro-1,4-dihydro-4-oxo-7-quinolinyl-3-pyrrolidinyi]amino]carbonyl]oxy]methyL]-7-[(cyanoacetyl)amino]-8-oxo-5-thia-1-azabicyclo[4.2.0]oct-2-ene-2-carboxylic acid monosodium salt]
MIC (Bacillus subtilis 558): 0.0625 µg/mL | MIC (E. coli DC-0): 2 µg/mL | MIC (Ps. aeruginosa 56M): 0.25 µg/mL | MIC (Prot. vulgaris 1028 BC): 0.0313 µg/mL | MIC (Cit. freundii EL-1408): 0.5 µg/mL | MIC [1]: 2 µg/mL | MIC [2]: 0.125 µg/mL | MIC (Prot. vulgaris 100): 0.0625 µg/mL | MIC (Enter. cloacae 4946): 0.125 µg/mL | MIC (Staph. aureus 95): 0.125 µg/mL | MIC [3]: 0.0625 µg/mL | MIC (Prot. mirabilis 620A): 0.125 µg/mL | MIC (E. coli HMS1): 0.0313 µg/mL | MIC (E. coli B): 0.0313 µg/mL | MIC (E. coli DC-2): 0.25 µg/mL | MIC (Mycobacterium phlei 78): 0.125 µg/mL | MIC (Ps. aeruginosa 18SH): 1 µg/mL | MIC (E. coli 4): 0.125 µg/mL | MIC (Serratia marcescens SM): 0.25 µg/mL | MIC (Escherichia coli 257): 0.125 µg/mL | MIC (Staph. aureus ATCC 25923): 0.25 µg/mL | MIC (Staph. aureus 1059B): 0.125 µg/mL | MIC (Ps. aeruginosa 765): 2 µg/mL | MIC (Staph. aureus 404): 0.125 µg/mL | MIC (Staph. aureus Evans): 0.0625 µg/mL | MIC [4]: 0.0313 µg/mL | MIC (Bacillus megaterium 164): 0.0625 µg/mL | MIC (A. calcoaceticus PCI-3): 0.5 µg/mL | MIC (E. coli 1527E): 0.0625 µg/mL | MIC (Ps. aeruginosa 1973 E): 1 µg/mL | MIC (E. coli 1573E): 0.0625 µg/mL | MIC (E. coli Leo HA2M4): 0.0313 µg/mL | MIC (E. coli 94): 0.125 µg/mL | MIC (E. coli Leo HA2): ≤ 0.0156 µg/mL | MIC (Ps. aeruginosa 8780): 2 µg/mL | MIC [5]: 0.25 µg/mL | MIC (Ent. faecalis ATCC 29212): 2 µg/mL | MIC (Prov. rettgeri ATCC 9250): 0.25 µg/mL | MIC (Ps. aeruginosa K799/WT): 1 µg/mL
